# “And” between values parts separate entries of the source, which are not always exact repeats. Equal entries are not always repeated. Where two headings read alike, the source gives them in different places.
# How the values were obtained:
# [1] = tested on: HeLa cells; assay: Cytotoxicity in HeLa cells, ATP content measured with the ATPlite kit; format: cell-based
# [2] = tested on: rgRSV224 virus; assay: Antiviral activity: inhibition of rgRSV224 (GFP-expressing RSV) replication in HeLa cells, GFP expression read-out; format: cell-based, respiratory syncytial virus (RSV); settings: for RSV HELA pEC50: rgRSV224 virus (MOI=1) in HeLa cells, GFP read-out; for EC50: human respiratory syncytial virus, HeLa, read-out: RSV HELA pEC50, rgRSV224 virus (MOI=1) in HeLa cells, GFP read-out (converted)
# Procedure, shortened: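 HeLa cells (3,000/well) were infected with GFP-expressing rgRSV224 (MOI=1) in the presence of 9 serial 4-fold compound dilutions (0.05% DMSO) and incubated at 37° C, 5% CO2. After three days, GFP expression was measured by laser microscopy. EC50 is the concentration giving 50% inhibition of GFP expression.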
# [3] = Cytotoxicity in HeLa cells, ATP content measured with the ATPlite kit; format: cell-based; settings: human, TOX HELA pCC50
Structure (SMILES),TOX HELA pCC50 [1],RSV HELA pEC50 [2],also measured
CCc1cc(C(=O)N2CCCCCC2C)nc2cc(-c3ccc(N(C)C)cc3)nn12 (stereo not shown) [Compound A2],<4.60,5.52,–
CCc1cc(C(=O)N2CCCCCC2C)nc2cc(-c3ccccc3Cl)nn12 (stereo not shown) [Compound A3],4.40,5.45,–
CCc1cc(C(=O)N2CCCCCC2C)nc2cc(-c3ccc4[nH]c(=O)ccc4c3)nn12 (stereo not shown) [Compound A15],<4.60,6.47,–
CCCC(C)N(CC)C(=O)c1cc(CC)n2nc(-c3ccccc3F)cc2n1 (stereo not shown) [Compound A16],4.45,5.57,–
CC1CCCCCN1C(=O)c1cc(N2CCCC2)n2nc(-c3ccc(N(C)C)cc3)cc2n1 (stereo not shown) [Compound A19],4.42,5.34,–
CCc1cc(C(=O)N2CCc3ccccc3C2C)nc2cc(-c3cc4cccnc4cc3F)nn12 (stereo not shown) [Compound A31],<4.60,6.20,–
CCc1cc(C(=O)N2CCCCCC2C)nc2cc(-c3ccc(NC(=O)OCC4CCCN4)cc3F)nn12 (stereo not shown) [Compound C3],–,6.78 and 6.55,"TOX HELA pCC50 ([1]; HeLa cells, cytotoxicity): <4.60 and 4.89"
CCc1cc(C(=O)N2CCCCC[C@H]2C)nc2cc(-c3ccc(-c4nc(C(=O)O)ccc4F)cc3F)nn12 [Compound F20],4.30,7.07,–
C[C@@H]1CCCCCN1C(=O)c1cc(C2CC2)n2nc(-c3ccc(-c4ccc(C(=O)O)cn4)cc3F)cc2n1 [Compound F21],4.37,7.28,–
CCc1cc(C(=O)N2CCc3ccccc3[C@H]2C)nc2cc(-c3ccc4cc(C(=O)O)ccc4c3F)nn12 [Compound F34],4.17,7.46,–
CCc1cc(C(=O)N2CCCCC[C@H]2C)nc2cc(-c3ccc4c(c3F)OCC(C(=O)O)C4)nn12 (stereo partly shown) [Compound F42],<4,7.16,–
CCc1cc(C(=O)N2CCCCC[C@H]2C)nc2cc(-c3ccc4oc(C(=O)O)cc4c3F)nn12 [Compound F44],4.25,6.40,–
CCc1cc(C(=O)N2CCCCC[C@H]2C)nc2cc(-c3ccc4c(c3F)C=C(C(=O)O)CO4)nn12 [Compound F46],<4,7.31,–
CCc1cc(C(=O)N2CCCCC[C@H]2C)nc2cc(-c3ccc(C4=CCCC(C(=O)O)C4)cc3F)nn12 (stereo partly shown) [Compound F52],4.22,6.81,–
CCc1cc(C(=O)N2CCc3ccccc3[C@H]2C)nc2cc(-c3ccc4c(c3F)OCC(C(=O)O)=C4)nn12 [Compound F54],4.75,8.59,–
CCc1cc(C(=O)N2CCc3sccc3[C@H]2C)nc2cc(-c3ccc(-c4ccc(C(=O)O)cn4)cc3F)nn12 [Compound F63],4.35,7.34,–
CCc1cc(C(=O)N2CCCCC[C@H]2C)nc2cc(-c3ccc4c(c3F)OC[C@H](C(=O)O)C4)nn12 [Compound F64],<4,7.12,–
CCc1cc(C(=O)N2CCn3c(C)ccc3C2C)nc2cc(-c3ccc(C(N)=O)cc3F)nn12 (stereo not shown) [Compound I36],<4.60,6.58,–
CCc1cc(C(=O)N2CCn3nccc3C2C)nc2cc(-c3ccc(C(N)=O)cc3F)nn12 (stereo not shown) [Compound I37],<4.60,6.24,–
C[C@@H]1CCCCCN1C(=O)c1cc(N(C)C)n2nc(-c3ccc(/C=C/C(=O)O)cc3F)cc2n1 [Compound M4],<4.60,6.80,–
CCc1cc(C(=O)N2CCc3ccccc3C2C)nc2cc(-c3ccc(/C=C/C(=O)O)cc3Cl)nn12 (stereo not shown) [Compound M6],<4.60,6.84,–
CCc1cc(C(=O)N2CCCCC[C@H]2C)nc2cc(-c3ccc(/C=C/C(=O)O)cc3F)nn12 [Compound M7],<4.60,7.00,–
CNc1cc(C(=O)N2CCc3ccccc3C2C)nc2cc(-c3ccc(/C=C/C(=O)O)cc3F)nn12 (stereo not shown) [Compound M8],<4.60,7.31,–
C[C@@H]1CCCCCN1C(=O)c1cc(C2CCC2)n2nc(-c3ccc(/C=C/C(=O)O)cc3F)cc2n1 [Compound M19],–,7.72,"CC50 at 3 days [3]: 38900 nM; TOX HELA pCC50 ([1]; human, 3 days): 4.49; EC50 [2]: 30.2 nM"
C[C@@H]1CCCCCN1C(=O)c1cc(C2CC2)n2nc(-c3ccc(/C=C/C(=O)O)cc3F)cc2n1 [Compound M21],4.34,7.16,–

Structure (SMILES),TOX HELA pCC50 [1],RSV HELA pEC50 [2],also measured
C[C@@H]1CCCCCN1C(=O)c1cc(C2(C)CC2)n2nc(-c3cccc(/C=C/C(=O)O)c3F)cc2n1 [Compound M22],4.05,7.34,–
CCc1cc(C(=O)N2CCCCC[C@H]2C)nc2cc(-c3cccc(/C=C\C(=O)O)c3F)nn12 [Compound M31],<4,6.13,–
CCc1cc(C(=O)N2CCCCC[C@H]2C)nc2cc(-c3ccc(OC)c(/C=C/C(=O)O)c3F)nn12 [Compound M34],<4,7.04,–
C[C@@H]1c2ccccc2CCN1C(=O)c1cc(C2(C)CC2)n2nc(-c3cccc(/C=C/C(=O)O)c3F)cc2n1 [Compound M36],4.26,7.99,–
CN1CCCCCN1C(=O)c1cc(C2(C)CC2)n2nc(-c3cccc(/C=C/C(=O)O)c3F)cc2n1 [Compound M37],<4,7.10,–
CCCC(C)N(C)C(=O)c1cc(CC)n2nc(-c3cccc(/C=C/C(=O)O)c3F)cc2n1 (stereo not shown) [Compound M38],<4,6.65,–
CCc1cc(C(=O)N2CCCC3(CC=CC3)C2C)nc2cc(-c3cccc(/C=C/C(=O)O)c3F)nn12 (stereo not shown) [Compound M39],<4,6.19,–
CCc1cc(C(=O)N2CCCCCN2C)nc2cc(-c3cccc(/C=C/C(=O)O)c3F)nn12 [Compound M40],<4,6.37,–
CCc1cc(C(=O)N2CCn3cccc3C2C)nc2cc(-c3cccc(/C=C/C(=O)O)c3F)nn12 (stereo not shown) [Compound M45],<4,7.54,–
CC1c2ccsc2CCN1C(=O)c1cc(C2(C)CC2)n2nc(-c3cccc(/C=C/C(=O)O)c3F)cc2n1 (stereo not shown) [Compound M47],4.07,7.87,–
CCc1cc(C(=O)N2CCc3ccccc3[C@H]2C)nc2cc(-c3ccc(C4C[C@H]4C(=O)O)cc3F)nn12 (stereo partly shown) [Compound O15],4.32,7.91,–
C[C@@H]1CCCCCN1C(=O)c1cc(C2(C)COC2)n2nc(-c3ccc(C4C[C@H]4C(=O)O)cc3F)cc2n1 (stereo partly shown) [Compound O17],4.11,7.29,–
CCc1cc(C(=O)N2CCCCC[C@H]2C)nc2cc(-c3ccc(-n4cc(C(=O)O)cn4)cc3F)nn12 [Compound W2],–,–,"CC50 at 3 days [3]: > 25100 nM; TOX HELA pCC50 ([1]; human, 3 days): 4.31"
CC(C)Cc1cc(C(=O)N2CCCCC[C@H]2C)nc2cc(-c3ccc(-n4cc(C(=O)O)cn4)cc3F)nn12 [Compound W13],4.38,7.45,–
CC(C)Cc1cc(C(=O)N2CCCCC[C@H]2C)nc2cc(-c3ccc(N4CC[C@H](C(=O)O)C4)cc3F)nn12 [Compound W14],4.29,7.53,–
CCc1cc(C(=O)N2CCc3ccccc3[C@H]2C)nc2cc(-c3ccc(N4CC[C@H](C(=O)O)C4)cc3F)nn12 [Compound W28],–,–,CC50 at 3 days [3]: 51300 nM; EC50 [2]: 4.27 nM; melting point: 218.99 °C
CCc1cc(C(=O)N2CCCCCN2C)nc2cc(-c3ccc(-n4cc(C(=O)O)cn4)cc3F)nn12 [Compound W32],–,–,CC50 at 3 days [3]: > 100000 nM; EC50 [2]: 219 nM; melting point: 268.79 °C
C[C@@H]1c2ccccc2CCN1C(=O)c1cc(C2CC2)n2nc(-c3ccc(-n4cc(C(=O)O)cn4)cc3F)cc2n1 [Compound W33],–,–,CC50 at 3 days [3]: 57500 nM; EC50 [2]: 16.2 nM; melting point: 257.75 °C
C[C@@H]1c2ccccc2CCN1C(=O)c1cc(C2(C)CC2)n2nc(-c3ccc(N4CC[C@H](C(=O)O)C4)cc3F)cc2n1 [Compound W34],–,–,CC50 at 3 days [3]: 43700 nM; EC50 [2]: 11.2 nM; melting point: 162.08 °C
CCc1cc(C(=O)N2CCCCC[C@H]2C)nc2cc(-c3ccc(-n4cc(C(=O)O)c(Cl)n4)cc3F)nn12 [Compound W35],–,–,CC50 at 3 days [3]: > 25100 nM; EC50 [2]: 191 nM; melting point: 145.75 °C
C[C@@H]1c2ccccc2CCN1C(=O)c1cc(C2CC2)n2nc(-c3ccc(N4CC[C@H](C(=O)O)C4)cc3F)cc2n1 [Compound W38],–,–,CC50 at 3 days [3]: 46800 nM; EC50 [2]: 5.75 nM; melting point: 214 °C
CC1c2ccsc2CCN1C(=O)c1cc(C2CC2)n2nc(-c3ccc(-n4cc(C(=O)O)cn4)cc3F)cc2n1 (stereo not shown) [Compound W41],–,–,CC50 at 3 days [3]: > 25100 nM; EC50 [2]: 13.2 nM; melting point: 257.83 °C
CCc1cc(C(=O)N2CCCCC[C@H]2C)nc2cc(-c3ccc(N4CC[C@](C)(C(=O)O)C4)cc3F)nn12 [Compound W49],–,–,CC50 at 3 days [3]: 53700 nM; EC50 [2]: 43.7 nM; melting point: 179.2 °C
CCc1cc(C(=O)N2CCCCC[C@H]2C)nc2cc(-c3ccc(N4CC[C@@](C)(C(=O)O)C4)cc3F)nn12 [Compound W50],–,–,CC50 at 3 days [3]: 74100 nM; EC50 [2]: 44.7 nM; melting point: 110.2 °C
C[C@@H]1CCCCCN1C(=O)c1cc(C2CC2)n2nc(-c3ccc(N4CC[C@H](C(=O)O)C4)cc3F)cc2n1 [Compound W51],–,–,CC50 at 3 days [3]: 69200 nM; EC50 [2]: 38.9 nM; melting point: 203.3 °C
